Molecular target: Tyrosine-protein kinase BTK (Homo sapiens, UniProt Q06187)
Experiment: Inhibition Assay: Plates assayed are 96-well polypropylene (Greiner) and 96-well 1.2 μm hydrophilic PVDF filter plates (Millipore). Concentrations reported here are final assay concentrations: 10-100 μM compounds in DMSO (Burdick and Jackson), 5-10 nM Btk enzyme (His-tagged, full-length), 30 μM peptide substrate (Biotin-Aca-[…]-NH2), 100 μM ATP (Sigma), 8 mM imidazole (Sigma, pH 7.2), 8 mM glycerol-2-phosphate (Sigma), 200 μM EGTA (Roche Diagnostics), 1 mM MnCl2 (Sigma), 20 mM MgCl2 (Sigma), 0.1 mg/ml BSA (Sigma), 2 mM DTT (Sigma), 1 μCi 33P ATP (Amersham), 20% streptavidin sepharose beads (Amersham), 50 mM EDTA (Gibco), 2 M NaCl (Gibco), 2 M NaCl w/1% phosphoric acid (Gibco), microscint-20 (Perkin Elmer).

Tyrosine-protein kinase BTK, sequence (Q06187 whole entry): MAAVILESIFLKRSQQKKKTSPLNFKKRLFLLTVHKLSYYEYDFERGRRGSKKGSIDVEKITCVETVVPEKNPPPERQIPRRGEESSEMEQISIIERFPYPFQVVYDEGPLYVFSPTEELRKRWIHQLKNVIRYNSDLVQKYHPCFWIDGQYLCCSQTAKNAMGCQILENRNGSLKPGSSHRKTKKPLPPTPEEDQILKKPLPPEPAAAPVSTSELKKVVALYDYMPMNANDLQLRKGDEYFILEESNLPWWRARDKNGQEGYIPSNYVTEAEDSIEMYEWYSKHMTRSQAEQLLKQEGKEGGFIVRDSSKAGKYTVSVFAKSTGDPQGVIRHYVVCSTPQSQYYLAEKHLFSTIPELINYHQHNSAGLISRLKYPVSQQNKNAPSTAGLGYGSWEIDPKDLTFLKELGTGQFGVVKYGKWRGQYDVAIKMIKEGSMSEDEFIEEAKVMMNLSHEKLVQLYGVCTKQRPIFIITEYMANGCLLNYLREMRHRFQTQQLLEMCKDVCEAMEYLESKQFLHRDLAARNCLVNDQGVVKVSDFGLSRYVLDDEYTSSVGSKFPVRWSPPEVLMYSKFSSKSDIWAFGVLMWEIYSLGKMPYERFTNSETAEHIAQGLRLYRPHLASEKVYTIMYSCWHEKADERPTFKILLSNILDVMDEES

CC(C)(C)c1cc(F)c2c(=O)n(-c3cccc(-n4cc(C(N)=O)c(Nc5ccc(S(C)(=O)=O)cc5)n4)c3CO)ncc2c1
IC50: 0.09 nM

Source: ChEMBL document CHEMBL3639151, “Inhibitors of bruton's tyrosine kinase” (2014)
